This is an account of results in article PMC9501810, “Bitter Peptides YFYPEL, [sequence], and [sequence], Released during Gastric Digestion of Casein, Stimulate Mechanisms of Gastric Acid Secretion via Bitter Taste Receptors TAS2R16 and TAS2R38” (Journal of Agricultural and Food Chemistry, 2022).

The subject of one series is pepsin. Briefly: In vitro gastric digestion of casein with targeted UHPLC-MS/MS-MRM quantitation of peptides. Particulars: 37 °C, n = 4; for degradation of the peptide during further in vitro gastric digestion: SGF pH 3 with pepsin, up to 6 h. In kind it is in vitro ADME, porcine. The method, then:
The in vitro digestion was based on the Nature protocol established by Brodkorb et al.([30]) For this, simulated salivary fluid (SSF, containing 15.1 mM KCl, 3.7 mM KH2PO4, 13.6 mM NaHCO3, 0.15 mM MgCl2(H2O)6, 0.06 mM (NH4)2CO3, 1.1 mM HCl, and 1.5 mM CaCl2(H2O)2) and simulated gastric fluid (SGF, containing 6.9 mM KCl, 0.9 mM KH2PO4, 25.0 mM NaHCO3, 47.2 mM NaCl, 0.12 mM MgCl2(H2O)6, 0.5 mM (NH4)2CO3, 15.6 mM HCl, and 0.15 mM CaCl2(H2O)2) were prepared. A total amount of 100 mg casein was suspended in 3 mL of SSF and incubated for 5 min at 37 °C in the tube rotator. After taking a sample (500 μL, t = 0 h), 2 mL of SGF was added and the pH was adjusted to 3 with 100 μL of HCl (1 M). After addition of 125 μL of pepsin solution (80,000 U/mL in 10 mM HCl), 275 μL of H2O was added to fill up to 5 mL. This was followed by further incubation at 37 °C in a tube rotator for 6 h. 500 μL of samples was taken at 0.25, 0.5, 0.75, 1, 2, 3, 4, 5, and 6 h, respectively. The samples were frozen in liquid nitrogen and stored at −80 °C until further analysis. For MS experiments, all samples were diluted 1:1 with 10% MeCN.
All targeted proteomics LC–MS/MS measurements were performed using a Sciex ExionLC AC (Sciex, Darmstadt, Germany) coupled to a 6500+ QTrap LC–MS/MS system (Sciex, Darmstadt, Germany) operating in the positive electrospray ionization mode. Data acquisition and instrumentation control were performed with AnalystTF software (v 1.7.1; Sciex, Darmstadt, Germany). Separation was performed using a 100 × 2.1 mm, 1.7 μm, Kinetex C18 column (Phenomenex, Aschaffenburg, Germany) with a guard column of the same type with 0.1% aqueous formic acid and acetonitrile containing 0.1% formic acid at a flow rate of 0.25 mL/min. The gradient was based on the following scheme: 0 min, 15% B; 7 min, 40% B; 7.5 min, 98% B; 10.5 min, 98% B; 10.8 min, 15% B; and 15 min, 15% B. The column oven temperature was set at 40 °C, and the injection volume was 1 μL per sample. For MS/MS measurements, the same parameters were used for all samples (ion spray voltage […], source temperature 450 °C, nebulizing gas 60 psi, and heating gas 30 psi). Nitrogen was set to 35 psi and served as a curtain gas to effectively dissolve the ions. To optimize the parameters DP, CE, and collision cell exit potential for each peptide and transition (Supporting Information Table-SI 2), standard solutions of the five synthesized peptides were injected directly into the MS ion source. Ionization parameters were optimized in positive ESI mode using AnalystTF software (v 1.7.1; Sciex, Darmstadt, Germany). For the preparation of the calibration curves, five peptides were dissolved individually in D2O (600 μL) and the concentration of the stock solutions was determined by qNMR.[35] For each peptide, seven calibration solutions (0.5, 1, 5, 10, 50, 100, and 200 μM) were diluted in 5% MeCN from these stock solutions. The data were analyzed using MultiQuant software (v 3.0.3; Sciex, Darmstadt, Germany).

The subject of another series is Caco-2 cell monolayers. Particulars: Caco-2; cited from earlier work. The source says: In addition, transport through Caco-2 cell monolayers was ...
A further series has as its system HGT-1 cells. Briefly: Proton secretion assay (intracellular proton index IPX, SNARF-1-AM). It counts as cell-based, human. Particulars: for ΔIPX (change in intracellular proton index vs untreated cells): 10 min incubation in KRHB, mean ± SEM, n = 4–8. The method, then: The measurement of proton secretion from HGT-1 cells represents a well-established model for the identification of bitter compounds. By affecting extraoral bitter taste receptors with bitter compounds, a modulatory effect on proton secretion can be measured. For this purpose, cells were washed with KRHB and incubated with 3 μM of the intracellular pH indicator 1,5 carboxy-seminaphto-rhodafluor acetoxymethyl ester (SNARF-1-AM) under standard conditions. After 30 min, the cells were washed again with KRHB and then incubated with casein (0.01–10 μM equimolar related to the relevant forms αS1- and β-casein), hydrolysate (0.01–10 μM), or the peptides (0.01–200 μM). […] All substances were dissolved and diluted in KRHB. 1 mM histamine was used as a positive control. Measurements were performed using FlexStation 3 (Molecular Devices, USA). The excitation wavelength was 488 nm, and the emission wavelengths were 580 and 640 nm. For calibration (pH range 7.0–8.0), the intracellular and extracellular pH was adjusted with 2 μM nigericin in potassium buffer (20 mM NaCl, 110 mM KCl, 1 mM CaCl2, 1 mM MgSO4, 18 mM D-glucose, and 20 mM HEPES). The intracellular proton index (IPX) was calculated as the log2 value of the 580/640 ratio and compared with cells without treatment. Negative values represent increased secretion of protons and therefore stimulation of mechanisms regulating gastric acid secretion in HGT-1 cells. In contrast, positive values represent an inhibition of secretion compared to the untreated control.

The nature of series [1]: Solubility of casein in the proton secretion assay. It counts as physicochemical. Particulars: casein in KRHB, concentrations above 10 µM could not be investigated.

For “PVVVPPFLQPEVM [bitter casein peptide βA1/A2-CN81–93]”, the “highest concentration released during in vitro digestion” value in the series on pepsin (100 mg casein, SSF then SGF pH 3 with pepsin, 0–6 h, mean) is “up to 148.7 μM”. Besides, the “degradation of the peptide during further in vitro gastric digestion” value in the series with pepsin is “not further degraded”. Further, the “transport through Caco-2 cell monolayers” value with Caco-2 cell monolayers is on record as “transport through Caco-2 cell monolayers was observed”. The “concentrations at which a significant ΔIPX was found” value with HGT-1 cells (tested 0.01–200 µM, 10 min) was “at 1 and 10 μM only”.
Take “YYVPLGTQ [bitter casein peptide αS1-CN165–172]”: the “degradation of the peptide during further in vitro gastric digestion” value with pepsin is reported as “no noticeable degradation”. Also, the “ΔIPX (change in intracellular proton index vs untreated cells)” value in the series with HGT-1 cells (0.1 µM, IPX = log2 of 580/640 ratio, negative = stimulated proton secretion) is listed as −0.166 ± 0.017.
casein: the solubility result in series [1] is reported as “poor solubility”. Besides, the “ΔIPX (change in intracellular proton index vs untreated cells)” value was “+0.212 ± 0.029” in the series on HGT-1 cells (5 µM, positive = inhibited proton secretion) and “+0.441 ± 0.037” in the series on HGT-1 cells (10 µM, negative = stimulated, positive = inhibited proton secretion). Besides, in the series on HGT-1 cells (casein concentrations below 5 µM (0.01–<5 µM, equimolar related to αS1- and β-casein)), the “change in mean IPX” value was “No significant change”.
